Test results: US12201684B2, “Compositions for stimulation of mammalian innate immune resistance to pathogens” (priority 2009, dated 2025)

How the values were obtained:
[1] = tested on: neutrophils and macrophages in BAL fluid; test: Bronchoalveolar lavage fluid leukocyte counts after aerosolized TLR ligands; format: in vivo, mice
[2] = cited from earlier work
[3] = tested on: P. aeruginosa strain PA103; test: In vivo inhalational P. aeruginosa challenge, survival; conditions: wild type mice; aerosolized treatment 24 h prior to challenge

With poly(I:C) the “influx of macrophages on BAL” value ([1]; 24 h after treatment) was “significant influx”.

For `CCC(=O)O[C@]1(C(=O)SCF)[C@H](C)C[C@H]2[C@@H]3C[C@H](F)C4=CC(=O)C=C[C@]4(C)[C@@]3(F)[C@@H](O)C[C@@]21C` [Fluticasone propionate, S-(fluromethyl)6α,9-difluoro-11β-17-dihydroxy-16α-methyl-3-oxoandrosta-1,4-diene-17β-carbothioate, 17-propionate], the “solubility in dimethyl sulfoxide and dimethylformamide” value [2] is listed as “freely soluble”, the “solubility in methanol and 95% ethanol” value [2] is listed as “slightly soluble” and the solubility in water [2] is listed as “practically insoluble”.

For monophosphoryl lipid A-synthetic [MPLA], the “protection against lethal P. aeruginosa pneumonia (survival)” value [3] was “non-significant trend towards increased mortality”.

For `CC(C)Cn1cnc2c(N)nc3ccccc3c21` [imiquimod, 1-(2-methylpropyl)-1H-imidazo[4,5-c]quinolin-4-amine], the “protection against lethal P. aeruginosa pneumonia (survival)” value [3] was “trend towards protection” and the “neutrophil infiltration above a certain ligand concentration” value ([1]; BAL 24 h after treatment, highest concentrations tested) was “reduction in neutrophil infiltration”.
